Results from US20070104644A1, “Inhibitor imaging agents” (priority 2003, published 2007).

Legend:
[1] = test system: ApoE −/− mice, carotid artery; assay: Biodistribution in ApoE ligation model of atherosclerosis (ligated and sham); assay type: in vivo
Description: ApoE −/− mice are transgenic knock-out mice, which lack the ApoE gene, and are therefore unable to regulate their plasma cholesterol levels. As a consequence ApoE mice develop atherosclerotic lesions, a process which is accelerated with feeding of high fat diet. Further acceleration of lesion development can be achieved by ligating the carotid artery, resulting in advanced lesion formation within 4 weeks of surgery and high fat diet feeding.
Two controls have been used for these experiments: (1) ApoE sham animals in which the mice undergo the same surgical intervention but the sture is only passed beneath the carotid and then removed and, (2) C57BL/6 ligtaed animals which undergo the same surgical ligation and high fat feeding as the ApoE ligated mice. Literature reports have stated that these animals do have some level of tissue remodelling, but with lower active MMP levels [Ivan et al, Circulation, 105, 2686-2691 (2002)].

[2] = test system: Lewis lung carcinoma (LLC) tumour; assay: Biodistribution in LLC tumour model in vivo; set-up: species or system C57BL/6 mice
Experimental: 1×10^6 Lewis lung carcinoma (LLC) cells are injected subcutaneously into right inner thigh of C57BL/6 mice. Tumours were allowed to grow for 15 days prior to biodistribution being carried out.
Biodistribution studies were performed in the LLC tumour model.
Biodistribution was performed in the LLC tumour model of Example 23 with Compounds 46B and 48B.

[3] = In vivo stability and metabolism in the rat
Description: Only plasma and bile samples could be analysed due to insufficient radioactivity within the urine.

[4] = In vitro rat plasma stability; assay type: in vitro ADME
Experimental: Plasma and in vivo stability studies were performed with Compound 24A to determine the stability and metabolism of the compound.

[5] = test system: MDA-MB-231 tumour (human breast carcinoma xenograft); assay: Imaging in MDA-MB-231 tumour model in vivo
Experimental: Imaging was performed with Compound 24A in the MDA-MB-231 tumour model (a human breast carcinoma xenograft model). […] 1999 May;17(3):231-8; • Lee et al, Eur. J Cancer, 2001; 37:106-113. • Weber et al Int J Oncol.

[6] = target: MMP-9 (Homo sapiens, UniProt P14780); assay: MMP-9 colorimetric assay kit (Biomol AK-410); assay type: biochemical
MMP-9, sequence (P14780 94-707): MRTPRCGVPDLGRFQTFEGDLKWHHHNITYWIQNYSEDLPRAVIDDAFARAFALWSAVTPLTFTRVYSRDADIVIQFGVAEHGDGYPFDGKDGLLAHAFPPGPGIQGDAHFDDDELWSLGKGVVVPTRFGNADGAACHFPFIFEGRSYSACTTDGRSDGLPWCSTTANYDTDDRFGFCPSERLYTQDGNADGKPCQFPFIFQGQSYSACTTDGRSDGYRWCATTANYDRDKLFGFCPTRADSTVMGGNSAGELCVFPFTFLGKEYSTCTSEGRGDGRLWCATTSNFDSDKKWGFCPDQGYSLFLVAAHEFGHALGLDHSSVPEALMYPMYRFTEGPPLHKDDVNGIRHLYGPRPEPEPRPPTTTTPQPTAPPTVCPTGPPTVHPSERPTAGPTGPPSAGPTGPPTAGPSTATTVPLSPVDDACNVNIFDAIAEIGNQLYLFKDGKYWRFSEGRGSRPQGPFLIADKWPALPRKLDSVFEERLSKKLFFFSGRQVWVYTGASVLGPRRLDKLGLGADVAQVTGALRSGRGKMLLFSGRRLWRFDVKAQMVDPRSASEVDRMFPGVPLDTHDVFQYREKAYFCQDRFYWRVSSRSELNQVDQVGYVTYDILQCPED
Experimental: (§1) Compounds were screened using the following commercially available Biomol assay kits: • MMP-1 colorimetric assay kit—Catalogue number AK-404, • MMP-2 colorimetric assay kit—Catalogue number AK-408, • MMP-8 calorimetric assay kit—Catalogue number AK-414, • MMP-9 calorimetric assay kit—Catalogue number AK-410, • MMP-12 colorimetric assay kit—Catalogue number AK-402, Which are available from Affiniti Research Products Ltd. (Palatine House, Matford Court, Exeter, EX2 8NL, UK).
(§2) Inhibitors were provided in powdered form, and stored at 4° C. For each inhibitor a 1 mM stock solution in DMSO was prepared, dispensed into 20 μl aliquots and these aliquots stored at −20° C. The stock solution was diluted to give 8 inhibitor concentrations (recommended: 50 μM, 5 μM, 500 nM, 50 nM, 5 nM, 500 pM, 50 pM and 5 pM). Dilutions were made in the kit assay buffer. A five-fold dilution of the inhibitor stocks is made on addition to the assay wells, therefore final concentration range was from 10 μM to 1 pM.
(§3) Details are provided with the commercial kit, but can be summarised as follows: • Prepare test compound dilutions as above, • Add assay buffer to plate, • Add test compounds to plate • Prepare standard kit inhibitor NNGH (see kit for dilution factor) • Add NNGH to control inhibitor wells • Prepare MMP enzyme (see kit for dilution factor) • Add MMP to plate • Incubate plate at 37° C. for ˜15 min • Prepare thiopeptolide substrate (see kit for dilution factor) • Add substrate to plate • Count every 2 min for 1 hr, 37° C., 414 nm on a Labsystems iEMS plate reader (for MMP-1 count every 30 seconds for 20 minutes).

[7] = target: T1, MMP-1 (Homo sapiens, UniProt P03956); assay: MMP-1 colorimetric assay kit (Biomol AK-404); assay type: biochemical
T1 sequence (P03956 100-469): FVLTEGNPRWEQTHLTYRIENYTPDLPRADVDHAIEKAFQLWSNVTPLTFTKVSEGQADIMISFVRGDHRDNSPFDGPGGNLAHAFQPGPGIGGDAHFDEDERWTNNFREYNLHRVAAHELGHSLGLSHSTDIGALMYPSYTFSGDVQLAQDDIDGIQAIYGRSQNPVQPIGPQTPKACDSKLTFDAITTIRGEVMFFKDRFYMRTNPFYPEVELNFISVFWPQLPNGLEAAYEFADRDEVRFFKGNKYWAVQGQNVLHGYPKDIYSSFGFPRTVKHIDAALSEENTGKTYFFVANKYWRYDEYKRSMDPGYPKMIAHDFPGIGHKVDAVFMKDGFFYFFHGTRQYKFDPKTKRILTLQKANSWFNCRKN
Experimental: as §1, §2, §3

[8] = target: MMP-8 (Homo sapiens, UniProt P22894); assay: MMP-8 colorimetric assay kit (Biomol AK-414); assay type: biochemical
MMP-8, sequence (P22894 101-467): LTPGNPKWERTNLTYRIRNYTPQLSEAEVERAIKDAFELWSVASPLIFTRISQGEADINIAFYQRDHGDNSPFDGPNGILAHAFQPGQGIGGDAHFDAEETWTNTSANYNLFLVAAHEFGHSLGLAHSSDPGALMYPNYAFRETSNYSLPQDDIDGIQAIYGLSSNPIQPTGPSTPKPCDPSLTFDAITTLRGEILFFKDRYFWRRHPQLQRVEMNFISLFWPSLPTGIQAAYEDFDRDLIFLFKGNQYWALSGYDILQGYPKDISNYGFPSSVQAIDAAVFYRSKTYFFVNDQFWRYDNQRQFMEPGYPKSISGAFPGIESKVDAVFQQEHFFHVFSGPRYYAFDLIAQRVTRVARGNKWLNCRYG
Experimental: as §1, §2, §3

[9] = target: MMP-12 (Homo sapiens, UniProt P39900); assay: MMP-12 colorimetric assay kit (Biomol AK-402); assay type: biochemical
MMP-12, sequence (P39900 106-470): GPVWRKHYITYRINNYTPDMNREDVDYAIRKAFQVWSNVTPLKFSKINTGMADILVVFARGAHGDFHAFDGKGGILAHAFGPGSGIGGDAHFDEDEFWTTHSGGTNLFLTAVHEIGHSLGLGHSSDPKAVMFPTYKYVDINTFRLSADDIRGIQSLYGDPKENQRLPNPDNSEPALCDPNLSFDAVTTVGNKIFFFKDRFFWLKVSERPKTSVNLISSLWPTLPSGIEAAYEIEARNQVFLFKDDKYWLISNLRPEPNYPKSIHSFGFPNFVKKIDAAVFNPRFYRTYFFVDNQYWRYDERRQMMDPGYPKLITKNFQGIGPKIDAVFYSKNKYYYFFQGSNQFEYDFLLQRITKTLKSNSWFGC
Experimental: as §1, §2, §3

[10] = target: T2, MMP-2 (Homo sapiens, UniProt P08253); assay: MMP-2 colorimetric assay kit (Biomol AK-408); assay type: biochemical
T2 sequence (P08253 110-660): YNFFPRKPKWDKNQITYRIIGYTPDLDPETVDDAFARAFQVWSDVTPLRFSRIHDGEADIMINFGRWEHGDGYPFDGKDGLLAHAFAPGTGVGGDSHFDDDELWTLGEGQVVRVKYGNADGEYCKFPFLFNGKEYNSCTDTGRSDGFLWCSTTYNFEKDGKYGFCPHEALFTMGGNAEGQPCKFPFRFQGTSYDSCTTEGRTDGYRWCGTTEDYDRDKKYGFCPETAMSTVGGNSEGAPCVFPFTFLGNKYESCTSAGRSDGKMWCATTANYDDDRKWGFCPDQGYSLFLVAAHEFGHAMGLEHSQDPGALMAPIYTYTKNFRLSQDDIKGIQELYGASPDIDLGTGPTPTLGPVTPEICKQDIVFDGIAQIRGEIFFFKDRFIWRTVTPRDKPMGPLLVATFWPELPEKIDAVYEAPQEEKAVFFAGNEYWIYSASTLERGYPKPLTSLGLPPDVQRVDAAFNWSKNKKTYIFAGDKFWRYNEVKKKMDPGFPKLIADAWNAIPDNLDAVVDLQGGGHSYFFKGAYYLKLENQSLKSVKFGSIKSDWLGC
Experimental: as §1, §2, §3

[11] = ApoE Ligated, 5 min post injection
[12] = ApoE Ligated, 60 min post injection
[13] = ApoE Sham, 60 min post injection

## O=C(CCN(C1(C(=O)NO)CCCC1)S(=O)(=O)c1ccc(Oc2ccc(F)cc2)cc1)NCCc1ccc(O)c([123I])c1 [Compound 24A]
[1]; [11]
  % ID/G Carotid, mean: 2.67 % ID/G
  Carotid/Blood, mean: 0.94
  Carotid/Heart, mean: 0.48
  Carotid/Lung, mean: 0.62
[1]; [12]
  % ID/G Carotid, mean: 2.00 % ID/G
  Carotid/Blood, mean: 1.97
  Carotid/Heart, mean: 1.03
  Carotid/Lung, mean: 1.71
[1]; [13]
  % ID/G Carotid, mean: 0.25 % ID/G
  Carotid/Blood, mean: 0.19
  Carotid/Heart, mean: 0.21
  Carotid/Lung, mean: 0.17
[2]
  Background tissue uptake: low background tissue uptake
  Blood clearance / retention: cleared very rapidly from the blood
  Route of excretion: primarily excreted through the hepatobiliary system (HBS)
  Tumour uptake and retention: Some retention was seen within tumour tissue
[2]; 5 min post injection
  % ID Urinary (urinary excretion), mean: 7.17 % ID
  % ID/g Tumour, mean: 0.6 % ID/g
  Tumour/Blood, mean: 0.32
  Tumour/Heart, mean: 0.27
  Tumour/Lung, mean: 0.22
  Tumour/Muscle, mean: 1.19
[2]; 30 min post injection
  % ID Urinary (urinary excretion), mean: 6.89 % ID
  % ID/g Tumour, mean: 0.56 % ID/g
  Tumour/Blood, mean: 0.59
  Tumour/Heart, mean: 0.57
  Tumour/Lung, mean: 0.39
  Tumour/Muscle, mean: 1.6
[2]; 60 min post injection
  % ID Urinary (urinary excretion), mean: 5.5 % ID
  % ID/g Tumour, mean: 0.48 % ID/g
  Tumour/Blood, mean: 0.46
  Tumour/Heart, mean: 0.68
  Tumour/Lung, mean: 0.37
  Tumour/Muscle, mean: 1.41
[2]; 120 min post injection
  % ID Urinary (urinary excretion), mean: 7.22 % ID
  % ID/g Tumour, mean: 0.6 % ID/g
  Tumour/Blood, mean: 0.66
  Tumour/Heart, mean: 1.23
  Tumour/Lung, mean: 0.85
  Tumour/Muscle, mean: 1.87
[3]; in vivo
  Metabolites detected in bile samples: 4
  Metabolites detected in plasma samples: One metabolite
[3]; in vivo, through time
  Free iodide in plasma samples: increasing amount of free iodide
[3]; through time in vivo
  In vivo stability and metabolism: slight instability and metabolism
[4]; 2 hours, 37° C.
  In vitro rat plasma stability: good stability
[4]; start of incubation at 37° C.
  RCP of parent compound: 93%
[4]; through 2 hours incubation at 37° C.
  RCP of parent compound: 80%
[5]
  Tumour hotspots on imaging: seen from 5 to 120 minutes post injection

## O=C(CCN(C1(C(=O)NO)CCCC1)S(=O)(=O)c1ccc(Oc2ccc(F)cc2)cc1)NCCc1ccc(O)c(I)c1 [Compound 24]
[6]
  Ki: 0.58 nM
[7]
  Ki: 4950 nM
[8]
  Ki: 3.93 nM
[9]
  Ki: 0.67 nM
[10]
  Ki: 0.14 nM

## NC(=O)[C@H](Cc1ccc(O)c(I)c1)NC(=O)CCOCCOCCOCCOCCOCCOCCOCCOCCOCCOCCOCCNC(=O)CCOCCOCCOCCOCCOCCOCCOCCOCCOCCOCCOCCNC(=O)CCN(C1(C(=O)NO)CCCC1)S(=O)(=O)c1ccc(Oc2ccc(F)cc2)cc1 [Compound 32]
[6]
  Ki: 0.37 nM
[7]
  Ki: 330 nM
[8]
  Ki: 2.17 nM
[9]
  Ki: 0.89 nM
[10]
  Ki: 0.62 nM

## NC(=O)[C@H](Cc1ccc(O)c(I)c1)NC(=O)COCC(=O)NCCOCCOCCOCCNC(=O)[C@H](CCC(=O)O)NC(=O)[C@H](CCC(=O)O)NC(=O)[C@H](CCC(=O)O)NC(=O)[C@H](CCC(=O)O)NC(=O)[C@H](CCC(=O)O)NC(=O)CCN(C1(C(=O)NO)CCCC1)S(=O)(=O)c1ccc(Oc2ccc(F)cc2)cc1 [Compound 38]
[6]
  Ki: 0.99 nM
[9]
  Ki: 0.05 nM
[10]
  Ki: 1.25 nM

## NC(=O)[C@H](CCCCNC(=O)CON=Cc1ccc(F)cc1)NC(=O)CCN(C1(C(=O)NO)CCCC1)S(=O)(=O)c1ccc(Oc2ccc(F)cc2)cc1 [Compound 46]
[6]
  Ki: 0.44 nM
[7]
  Ki: 172 nM
[8]
  Ki: 0.52 nM
[9]
  Ki: 0.17 nM
[10]
  Ki: 1.96 nM
